Measured values: ChEMBL document CHEMBL3272037, “Antitumor agents. 21. A proposed mechanism for inhibition of cancer growth by tenulin and helenalin and related cyclopentenones” (J Med Chem, 1977)
Values after ≈ are worked out from the molar mass of the structure shown. Active and inactive are the calls of the source. The calls are words filed in the database; no cut-off is given here.

Key:
Ehrlich [1] = assay: Antitumor activity against mouse EAC cells allografted in CF1 mouse assessed as survival at 33.3 mg/kg/day, ip after 7 days; format: functional, organism-based
Ehrlich [2] = assay: Antitumor activity against mouse EAC cells allografted in CF1 mouse assessed as tumor growth inhibition at 33.3 mg/kg/day, ip after 7 days; format: functional; conditions: 168 h, route intraperitoneal, read-out: TGI
W256 = assay: Antitumor activity against rat Walker 256 cells allografted in Sprague-Dawley rat at 2.5 mg/kg/day, ip relative to control; format: functional; conditions: route intraperitoneal
[3] = Cytotoxicity against human Hep2 cells; format: functional; conditions: HEp-2, read-out: ED50 (the source's name)
[4] = Stability of the compound assessed as reactivity with reduced glutathione at 28 mg after 16 hrs by NMR analysis; format: physicochemical
[5] = Stability of the compound assessed as reactivity with L-cysteine by NMR analysis; format: physicochemical
[6] = Stability of the compound assessed as reactivity with histidine at 28 mg after 7 days by NMR analysis; format: physicochemical; conditions: 168 h
P388 = assay: Antitumor activity against mouse P388 cells allografted in DBA/2 mouse at 25 mg/kg/day, ip relative to control; format: functional; conditions: route intraperitoneal
[7] = Binding affinity to dGMP (unknown origin) at 0.015 ug at pH 7.2 after 24 hrs by UV-spectrophotometry
[8] = Binding affinity to dGTP (unknown origin) at 0.015 ug at pH 7.2 after 24 hrs by UV-spectrophotometry
[9] = Binding affinity to dAMP (unknown origin) at 0.015 ug by UV-spectrophotometry
[10] = Binding affinity to dATP (unknown origin) at 0.015 ug by UV-spectrophotometry
[11] = Binding affinity to DNA (unknown origin) at 0.015 ug at pH 7.2 after 24 hrs by UV-spectrophotometry
Ehrlich [12] = assay: Antitumor activity against mouse EAC cells allografted in CF1 mouse assessed as DNA content at 0.25 mg/day administered from day 5 to day 7 measured on day 8 by UV-spectrophotometry relative to control; format: functional
Ehrlich [13] = assay: Antitumor activity against mouse EAC cells allografted in CF1 mouse assessed as chromatin protein content at 0.25 mg/day administered from day 5 to day 7 measured on day 8 relative to control; format: functional
Ehrlich [14] = assay: Antitumor activity against mouse EAC cells allografted in CF1 mouse assessed as [methyl-14C]thymidine incorporation to DNA at 0.25 mg/day administered from day 5 to day 7 measured on day 8 by scintillation counting analysis relative to control; format: functional
Ehrlich [15] = assay: Antitumor activity against mouse EAC cells allografted in CF1 mouse assessed as nuclear DNA polymerase activity at 0.25 mg/day administered from day 5 to day 7 measured on day 8 relative to control; format: functional
Ehrlich [16] = assay: Antitumor activity against mouse EAC cells allografted in CF1 mouse assessed as free lysosomal DNAse activity at 0.25 mg/day administered from day 5 to day 7 measured on day 8 relative to control; format: functional
Ehrlich [17] = assay: Antitumor activity against mouse EAC cells allografted in CF1 mouse assessed as [gamma-32P] incorporation into histone at 0.25 mg/day administered from day 5 to day 7 measured on day 8 relative to control; format: functional
Ehrlich [18] = assay: Antitumor activity against mouse EAC cells allografted in CF1 mouse assessed as 3',5' cAMP level at 0.25 mg/day administered from day 5 to day 7 measured on day 8 by RIA relative to control; format: functional
Ehrlich [19] = assay: Antitumor activity against mouse EAC cells allografted in CF1 mouse assessed as ascitocrit count per mililitre of fluid at 0.25 mg/day administered from day 5 to day 7 measured on day 8 by hemocytometry relative to control; format: functional
Ehrlich [20] = assay: Antitumor activity against mouse EAC cells assessed as nuclear DNA polymerase activity at 0.6 mg measured on day 8 relative to control; format: functional
Ehrlich [21] = assay: Antitumor activity against mouse EAC cells assessed as tissue SH stimulation at 0.6 mg measured on day 8 by Ellman method relative to control; format: functional
Ehrlich [22] = assay: Antitumor activity against mouse EAC cells allografted in CF1 mouse assessed as cell viability at 0.25 mg/day administered from day 5 to day 7 measured on day 8 by trypan blue assay relative to control; format: functional, cell-based
[23] = Binding affinity to dGMP (unknown origin) by NMR analysis
[24] = Stability of the compound assessed as reactivity with oxidized glutathione at 10 mg after 4 hrs by NMR analysis; format: physicochemical
[25] = Stability of the compound assessed as reactivity with reduced glutathione at 10 mg after 4 hrs by NMR analysis; format: physicochemical
[26] = Stability of the compound assessed as reactivity with L-cysteine at 10 mg after 4 hrs by NMR analysis; format: physicochemical
Ehrlich [27] = assay: Antitumor activity against mouse EAC cells allografted in CF1 mouse assessed as DNA content at 0.125 mg/day administered from day 5 to day 7 measured on day 8 by UV-spectrophotometry relative to control; format: functional
Ehrlich [28] = assay: Antitumor activity against mouse EAC cells allografted in CF1 mouse assessed as chromatin protein content at 0.125 mg/day administered from day 5 to day 7 measured on day 8 relative to control; format: functional
Ehrlich [29] = assay: Antitumor activity against mouse EAC cells allografted in CF1 mouse assessed as [methyl-14C]thymidine incorporation to DNA at 0.125 mg/day administered from day 5 to day 7 measured on day 8 by scintillation counting analysis relative to control; format: functional
Ehrlich [30] = assay: Antitumor activity against mouse EAC cells allografted in CF1 mouse assessed as nuclear DNA polymerase activity at 0.125 mg/day administered from day 5 to day 7 measured on day 8 relative to control; format: functional
Ehrlich [31] = assay: Antitumor activity against mouse EAC cells allografted in CF1 mouse assessed as free lysosomal DNAse activity at 0.125 mg/day administered from day 5 to day 7 measured on day 8 relative to control; format: functional
Ehrlich [32] = assay: Antitumor activity against mouse EAC cells allografted in CF1 mouse assessed as [gamma-32P] incorporation into histone at 0.125 mg/day administered from day 5 to day 7 measured on day 8 relative to control; format: functional
Ehrlich [33] = assay: Antitumor activity against mouse EAC cells allografted in CF1 mouse assessed as [gamma-32P] incorporation into nonhistone at 0.125 mg/day administered from day 5 to day 7 measured on day 8 relative to control; format: functional
Ehrlich [34] = assay: Antitumor activity against mouse EAC cells allografted in CF1 mouse assessed as 3',5' cAMP level at 0.125 mg/day administered from day 5 to day 7 measured on day 8 by RIA relative to control; format: functional
Ehrlich [35] = assay: Antitumor activity against mouse EAC cells allografted in CF1 mouse assessed as ascitocrit count per mililitre of fluid at 0.125 mg/day administered from day 5 to day 7 measured on day 8 by hemocytometry relative to control; format: functional
Ehrlich [36] = assay: Antitumor activity against mouse EAC cells allografted in CF1 mouse assessed as cell viability at 0.125 mg/day administered from day 5 to day 7 measured on day 8 by trypan blue assay relative to control; format: functional, cell-based

With `O=C1C=CCC1` the Survival (Ehrlich [1]) was “Active”, the inhibition in vivo at 33.3 mg/kg/day (Ehrlich [2]) was 74.8% and the T/C (W256) was 188%. For the same compound, the EC50 [3] was 50 mg/L (≈ 609 µM), the Stability [4] was “Stable” and the Stability [5] was “Stable”. For the same compound, the Stability [6] was “Unstable”.

With `C[C@@H]1C[C@H]2OC(=O)[C@@H](C)[C@H]2[C@H](O)[C@]2(C)C(=O)C=C[C@@H]12` the Survival (Ehrlich [1]) was “Active”, the inhibition in vivo at 33.3 mg/kg/day (Ehrlich [2]) was 100% and the T/C (W256) was 207%. It also gave a T/C (P388) of 134% and an EC50 [3] of 0.814 mg/L (≈ 3.08 µM).

In the case of `C[C@@H]1C[C@@H]2OC(=O)[C@]3(C)[C@H]2[C@@H](OC3(C)O)[C@]2(C)C(=O)C=C[C@@H]12` (stereo partly drawn) [TENULIN], the Survival (Ehrlich [1]) was “Active”, the inhibition in vivo at 33.3 mg/kg/day (Ehrlich [2]) was 97.3% and the T/C (W256) was 266%. For the same compound, the T/C (P388) was 131%, the EC50 [3] was 4.5 mg/L (≈ 14.7 µM) and the Activity [7] was “inactive”. For the same compound, the Activity [8] was “inactive”, the Activity [9] was “inactive” and the Activity [10] was “inactive”. The Activity [11] was “inactive”, the Activity (Ehrlich [12]) was 73% and the Activity (Ehrlich [13]) was 92%. The Activity (Ehrlich [14]) was 9%, the Activity (Ehrlich [15]) was 71% and the Activity (Ehrlich [16]) was 29%. The Activity (Ehrlich [17]) was 17%, the Activity (Ehrlich [18]) was 236% and the Activity (Ehrlich [19]) was 43%. For the same compound, the Activity (Ehrlich [20]) was 88%, the Activity (Ehrlich [21]) was 203% and the Activity (Ehrlich [22]) was “inactive”.

With `Sc1ncnc2nc[nH]c12` [MERCAPTOPURINE ANHYDROUS] the Survival (Ehrlich [1]) was “Active” and the inhibition in vivo at 33.3 mg/kg/day (Ehrlich [2]) was 99.4%.

With `C[C@@H]1C[C@@H]2OC(=O)[C@]3(C)[C@@H]2[C@@H](OC3(C)O)[C@]2(C)C(=O)CC(SC[C@H](N)C(=O)O)[C@@H]12` (stereo partly drawn) the Survival (Ehrlich [1]) was “Active”, the inhibition in vivo at 33.3 mg/kg/day (Ehrlich [2]) was 15.8% and the EC50 [3] was 13.7 mg/L (≈ 32 µM).

`C=C1C(=O)O[C@@H]2C[C@@H](C)[C@@H]3C=CC(=O)[C@@]3(C)[C@@H](O)[C@H]12` [HELENALIN] showed an inhibition in vivo at 33.3 mg/kg/day (Ehrlich [2]) of 100%, a T/C (W256) of 316% and a T/C (P388) of 127%. The EC50 [3] was 0.1 mg/L (≈ 0.381 µM), the Activity [7] was “inactive” and the Activity [8] was “inactive”. For the same compound, the Activity [9] was “inactive”, the Activity [10] was “inactive” and the Activity [11] was “inactive”. The Activity [23] was “inactive”, the Stability [24] was “Unstable” and the Stability [25] was “Stable”. The Stability [26] was “Stable”, the Activity (Ehrlich [27]) was 66% and the Activity (Ehrlich [28]) was 83%. For the same compound, the Activity (Ehrlich [29]) was 12%, the Activity (Ehrlich [30]) was 52% and the Activity (Ehrlich [31]) was 25%. The Activity (Ehrlich [32]) was 30%, the Activity (Ehrlich [33]) was 63% and the Activity (Ehrlich [34]) was 292%. For the same compound, the Activity (Ehrlich [35]) was 70%, the Activity (Ehrlich [20]) was 35% and the Activity (Ehrlich [21]) was 183%. The Activity (Ehrlich [36]) was “inactive”.
